B1: NIpD: recombinant NIpD protein; bacterial protein, e.g. from E. coli 83972; may comprise or consist of SEQ ID NO: 1 (protein, listed as Escherichia coli)
chain: MSAGSPKFTVRRIAALSLVSLWLAGCSDTSNPPAPVSSVNGNAPANTNSGMLITPPPKMGTTSTAQQPQIQPVQQPQIQATQQPQIQPMQPVAQQPVQMENGRIVYNRQYGNIPKGSYSGSTYTVKKGDTLFYIAWITGNDFRDLAQRNNIQAPYALNVGQTLQVGNASGTPITGGNAITQADAAEQGVVIKPAQNSTVAVASQPTITYSESSGEQSANKMLPNNKPTATTVTAPVTVPTASTTEPIVSSTSTSTPISTWRWPTEGKVIETFGASEGGNKGIDIAGSKGQAIIATADGRVVYAGNALRGYGNLIIIKHNDDYLSAYAHNDTMLVREQQEVKAGQKIATMGSTGTSSTRLHFEIRYKGKSVNPLRYLPQR

Tested on: E. coli CFT073
Assay: Irf3−/− mice infected with E. coli CFT073 by intravesical instillation; genetic model of acute pyelonephritis and urosepsis
Format: in vivo
Conditions: for bacterial growth in urine: at day 21 and 42; for long term protection against infection and inflammation: daily i.p. treatment for 7 days, follow-up to day 42, FIG. 2; for urine neutrophil numbers: long-term follow-up (day 21 and 42)
Experimental: Irf3^−/− mice were infected with E. coli CFT073 (50 μl of 2.109 cfu/ml) by intravesical instillation. Intraperitoneal treatment was administered daily, starting 6 hours after infection and for 7 days. Mice were treated with recombinant NIpD protein (105 μg in 100 μl) or IL-1RA (Anakinra, 1 mg/kg, 100 μl). Control mice received PBS. Urine sampling for bacterial and neutrophil counts were done on day 1, 3, 5 and 7 in one group of animals (those sacrificed on day 7), and on day 1, 3, 5, 7, 21 and 42 in others.
Animals were sacrificed under anesthesia; kidneys and bladders were asceptically removed and in the case of bladders, macroscopic pathology was documented by photography. Tissues were fixed with 4% paraformaldehyde or frozen for sectioning and RNA extraction. Viable counts in homogenized tissues (Stomacher 80, Seward Medical) were determined on TSA (37° C., overnight). Urine samples were collected prior to and at regular times after infection and quantitatively cultured. Neutrophils in uncentrifuged urine were counted, using a hemocytometer.

| Molecule | bacterial growth in urine | long term protection against infection and inflammation | urine neutrophil numbers |
| --- | --- | --- | --- |
| IL-1RA: interleukin-1 receptor antagonist (IL-1 RA), anakinra | no bacterial growth in urine | long term protection | low urine neutrophil numbers |
| B1 | no bacterial growth in urine | long term protection | low urine neutrophil numbers |
